According to PMC12472391, “Borylated Five-Membered Ring Iminosugars: Synthesis, Spectroscopic Analysis, and Biological Evaluation for Glycosidase Inhibition and Anticancer Properties for Application in Boron Neutron Capture Therapy (BNCT)—Part 1” (Pharmaceuticals, 2025):

Key:
Format in all cases: biochemical
[1] = system: panel of eight glycosidases; test: Glycosidase inhibition, whole panel of Table 7; details: 1 mg/mL aqueous solution added
Description: (§1) All enzymes and para-nitrophenyl substrates were purchased from Sigma. Enzymes were assayed at 27 °C in citric acid (0.1M)/disodium hydrogen phosphate (0.2 M) buffers at the optimum pH for the enzyme. The incubation mixture consisted of […] enzyme solution, […] of 1 mg/mL aqueous solution of extract, and […] of the appropriate 5 mM para-nitrophenyl substrate made up in buffer at the optimum pH for the enzyme. The reactions were stopped by the addition of […] 0.4 M glycine (pH 10.4) during the exponential phase of the reaction, which had been determined at the beginning using uninhibited assays in which water replaced the inhibitor. Final absorbances were read at 405 nm using a Versamax microplate reader (Molecular Devices). Assays were carried out in triplicate, and the values given are the means of the three replicates per assay. All reactions run in water.

[2] = system: N-acetyl-β-D-glucosaminidase (bovine kidney); test: Glycosidase inhibition, Table 7; details: 1 mg/mL aqueous solution added, 27 °C, run in water
Description: as §1

[3] = biological target: T1, α-D-mannosidase (Jack bean) (Canavalia ensiformis, UniProt C0HJB3); test: Glycosidase inhibition, Table 7; details: 1 mg/mL aqueous solution added, 27 °C, run in water; for inhibition at 1000 µg/mL (stock): read-out: α-D-Mannosidase Jack Bean, percentage inhibition
T1 construct: purchased Sigma
T1 sequence (C0HJB3 1-981): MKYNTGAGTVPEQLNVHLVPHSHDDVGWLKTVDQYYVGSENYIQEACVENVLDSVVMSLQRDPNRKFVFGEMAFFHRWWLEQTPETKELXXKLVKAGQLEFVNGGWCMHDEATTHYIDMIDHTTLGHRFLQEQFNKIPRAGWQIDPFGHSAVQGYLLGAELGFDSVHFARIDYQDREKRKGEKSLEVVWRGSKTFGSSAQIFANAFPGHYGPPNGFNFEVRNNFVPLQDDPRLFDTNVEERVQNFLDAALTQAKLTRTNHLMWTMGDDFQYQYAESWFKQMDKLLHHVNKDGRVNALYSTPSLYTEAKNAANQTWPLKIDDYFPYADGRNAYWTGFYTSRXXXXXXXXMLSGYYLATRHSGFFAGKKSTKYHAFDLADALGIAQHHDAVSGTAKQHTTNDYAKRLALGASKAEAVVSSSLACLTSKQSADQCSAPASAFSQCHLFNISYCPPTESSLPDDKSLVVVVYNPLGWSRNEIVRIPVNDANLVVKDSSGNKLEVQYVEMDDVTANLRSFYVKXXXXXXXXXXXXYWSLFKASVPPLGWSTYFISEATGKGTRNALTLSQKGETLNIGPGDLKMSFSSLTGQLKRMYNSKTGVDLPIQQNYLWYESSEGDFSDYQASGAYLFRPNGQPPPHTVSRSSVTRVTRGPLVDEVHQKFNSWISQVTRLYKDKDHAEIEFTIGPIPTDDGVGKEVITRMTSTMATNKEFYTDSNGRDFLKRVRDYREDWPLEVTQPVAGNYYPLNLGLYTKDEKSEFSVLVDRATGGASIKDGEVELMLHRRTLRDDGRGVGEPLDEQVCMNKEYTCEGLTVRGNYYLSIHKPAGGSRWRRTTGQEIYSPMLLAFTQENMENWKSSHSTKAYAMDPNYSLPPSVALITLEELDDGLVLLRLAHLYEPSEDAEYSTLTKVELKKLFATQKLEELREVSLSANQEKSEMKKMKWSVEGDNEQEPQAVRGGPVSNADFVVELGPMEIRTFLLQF
Description: as §1

[4] = system: α-D-glucosidase (Bacillus); test: Glycosidase inhibition, Table 7; details: 1 mg/mL aqueous solution added, 27 °C, run in water
Description: as §1

[5] = biological target: β-D-glucosidase (human lysosome) (Homo sapiens, UniProt P04062); test: Glycosidase inhibition, Table 6 footnote
Sequence of β-D-glucosidase (human lysosome) (P04062 40-536): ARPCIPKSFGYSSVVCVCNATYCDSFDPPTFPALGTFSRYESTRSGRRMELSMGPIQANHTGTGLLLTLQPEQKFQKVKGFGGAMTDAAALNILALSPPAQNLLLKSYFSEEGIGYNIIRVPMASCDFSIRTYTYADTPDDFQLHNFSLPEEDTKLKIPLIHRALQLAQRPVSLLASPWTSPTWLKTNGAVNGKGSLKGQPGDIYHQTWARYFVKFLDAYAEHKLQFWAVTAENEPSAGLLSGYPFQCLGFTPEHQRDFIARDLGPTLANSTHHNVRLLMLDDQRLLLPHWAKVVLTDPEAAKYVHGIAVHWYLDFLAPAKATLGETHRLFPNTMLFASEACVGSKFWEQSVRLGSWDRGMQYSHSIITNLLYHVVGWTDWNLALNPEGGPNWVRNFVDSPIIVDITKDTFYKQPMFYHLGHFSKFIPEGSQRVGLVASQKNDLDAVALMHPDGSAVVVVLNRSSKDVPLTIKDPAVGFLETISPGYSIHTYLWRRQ

[6] = biological target: β-D-galactosidase (E. coli) (Escherichia coli, UniProt P00722); test: Glycosidase inhibition, Table 6 footnote; details: read-out: β-D-galactosidase (E. coli), inhibition % at 100 μM
Sequence of β-D-galactosidase (E. coli) (P00722 2-1024): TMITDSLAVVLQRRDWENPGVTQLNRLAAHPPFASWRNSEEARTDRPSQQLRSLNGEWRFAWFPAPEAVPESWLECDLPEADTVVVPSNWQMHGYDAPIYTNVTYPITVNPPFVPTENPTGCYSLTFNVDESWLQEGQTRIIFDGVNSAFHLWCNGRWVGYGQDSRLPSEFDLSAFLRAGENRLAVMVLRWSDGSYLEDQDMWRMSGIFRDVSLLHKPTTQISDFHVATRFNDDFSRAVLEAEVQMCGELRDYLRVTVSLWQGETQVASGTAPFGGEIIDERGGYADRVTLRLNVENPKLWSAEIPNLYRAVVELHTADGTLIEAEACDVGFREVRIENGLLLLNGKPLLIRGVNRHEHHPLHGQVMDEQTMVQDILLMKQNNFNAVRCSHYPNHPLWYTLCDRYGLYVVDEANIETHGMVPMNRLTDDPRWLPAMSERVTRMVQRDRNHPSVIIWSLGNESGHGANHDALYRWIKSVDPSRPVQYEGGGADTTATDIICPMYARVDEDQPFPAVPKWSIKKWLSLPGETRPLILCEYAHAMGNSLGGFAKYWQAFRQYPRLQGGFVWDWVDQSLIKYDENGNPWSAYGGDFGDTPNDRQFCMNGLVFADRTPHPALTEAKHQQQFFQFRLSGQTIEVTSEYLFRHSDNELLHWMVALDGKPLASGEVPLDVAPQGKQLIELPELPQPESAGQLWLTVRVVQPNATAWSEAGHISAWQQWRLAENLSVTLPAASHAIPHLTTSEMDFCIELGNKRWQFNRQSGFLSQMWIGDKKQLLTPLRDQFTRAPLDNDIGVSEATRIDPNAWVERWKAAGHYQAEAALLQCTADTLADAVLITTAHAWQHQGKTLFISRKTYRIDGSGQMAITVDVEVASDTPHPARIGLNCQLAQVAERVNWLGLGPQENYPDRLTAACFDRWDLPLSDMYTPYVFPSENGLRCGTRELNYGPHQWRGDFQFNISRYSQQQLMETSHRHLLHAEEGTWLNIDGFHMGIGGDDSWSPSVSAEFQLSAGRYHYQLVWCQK

panel of 15 glycosidases = test: Glycosidase inhibition, whole panel of Table 6; details: at 100 or 1000 μM
Source text: The enzymes α-D-glucosidase (from yeast), β-D-glucosidases (from almond and bovine liver), α-D-galactosidase (from coffee beans), β-D-galactosidase (from bovine liver), α-D-mannosidase (from Jack bean), β-D-mannosidase (from snail), α-L-rhamnosidase (from Penicillium decumbens), α-L-fucosidase (from bovine kidney), trehalase (from porcine kidney), β-D-glucuronidases (from E. coli and bovine liver), amyloglucosidase (from A. niger), para-nitrophenyl glycosides, and various disaccharides were purchased from Sigma-Aldrich Co. (St. Louis, MO, USA).
Brush border membranes were prepared from the rat small intestine according to the method of Kessler et al., and were assayed at pH 6.8 for rat intestinal maltase using maltose. For rat intestinal maltase, porcine kidney trehalase, and A. niger amyloglucosidase activities, the reaction mixture contained maltose (25 mM) and the appropriate amount of enzyme, and the incubations were performed for 10–30 min at 37 °C. The reaction was stopped by heating at 100 °C for 3 min. […] The absorbance at 505 nm was measured to determine the amount of the released D-glucose. Other glycosidase activities were determined using an appropriate para-nitrophenyl glycoside as substrate at the optimum pH of each enzyme. […] The released para-nitrophenol was measured spectrometrically at 400 nm. […]

[7] = system: α-D-glucosidase (rat intestine); test: Glycosidase inhibition, Table 7; details: 1 mg/mL aqueous solution added, 27 °C, run in water
Description: as §1

[8] = system: N-acetyl-β-D-hexosaminidase (rat intestine); test: Glycosidase inhibition, Table 7; details: 1 mg/mL aqueous solution added, 27 °C, run in water
Description: as §1

[9] = biological target: α-D-glucosidase (human lysosome) (Homo sapiens, UniProt P10253); test: Glycosidase inhibition, Table 6 footnote

N[C@@H](Cc1ccc(B(O)O)cc1)C(=O)O [BPA, 4-borono-L-phenylalanine, reference compound]
inhibitions across the panel (Table 7) [1]: below 30%
N-Acetyl-β-D-glucosaminidase Bovine Kidney, percentage inhibition [2]: 6.7%
inhibition at 1000 µg/mL (stock) [3]: 0.6%
α-D-Glucosidase Bacillus, percentage inhibition [4]: 19.9%

CC1(C)O[C@H]2O[C@H]3[C@@H]([C@H]2O1)N(Cc1ccccc1)C[C@H]3O [Compound 3, N-Benzyl-3,6-dideoxy-3,6-imino-1,2-O-isopropylidene-α-D-gulofuranose]
N-Acetyl-β-D-glucosaminidase Bovine Kidney, percentage inhibition [2]: −0.1%
inhibition at 1000 µg/mL (stock) [3]: -30.6%
α-D-Glucosidase Bacillus, percentage inhibition [4]: −43.2%

OC1O[C@@H]2[C@H]([C@H]1O)N(Cc1ccccc1)C[C@H]2O (stereo partly drawn) [Compound 4, N-Benzyl-3,6-dideoxy-3,6-imino-D-gulofuranose]
N-Acetyl-β-D-glucosaminidase Bovine Kidney, percentage inhibition [2]: −9.1%
inhibition at 1000 µg/mL (stock) [3]: -12.1%
α-D-Glucosidase Bacillus, percentage inhibition [4]: −37.9%

OC[C@H](O)[C@@H]1[C@H](O)[C@H](O)CN1Cc1ccccc1 [Compound 5, N-Benzyl-1,4-dideoxy-1,4-imino-L-gulitol]
inhibition at 100 µM [5]: 2.91%
inhibition at 100 µM [6]: 0%
percent inhibitions in the panel (Table 6) (panel of 15 glycosidases): do not provide a strong degree of inhibition
α-D-Glucosidase Rat Intestine, percentage inhibition [7]: −1.3%
N-Acetyl-β-D-hexosaminidase Rat Intestine, percentage inhibition [8]: −1.5%
inhibition at 100 µM [9]: 0%

N[C@@H](Cc1ccc(B(O)O)cc1)C(=O)O [^10B-BPA, reference compound]
inhibitions across the panel (Table 7) [1]: below 30%
N-Acetyl-β-D-glucosaminidase Bovine Kidney, percentage inhibition [2]: 6.3%
α-D-Mannosidase Jack Bean, percentage inhibition [3]: −0.7%
α-D-Glucosidase Bacillus, percentage inhibition [4]: 19.5%

CC1(C)O[C@H]2O[C@H]3[C@@H]([C@H]2O1)N(Cc1ccc(B2OC(C)(C)C(C)(C)O2)cc1)C[C@H]3O [para 6, N-(4-Methylphenylboronic acid pinacol ester)-3,6-dideoxy-3,6-imino-1,2-O-isopropylidene-α-D-gulofuranose]
percent inhibitions in the panel (Table 6) (panel of 15 glycosidases): do not provide a strong degree of inhibition

OB(O)c1ccc(CN2CC(O)C3OC(O)C(O)C32)cc1 [para 7, N-(4-Methylphenylboronic acid)-3,6-dideoxy-3,6-imino-D-gulofuranose]
α-D-Glucosidase Rat Intestine, percentage inhibition [7]: −5.4%
N-Acetyl-β-D-hexosaminidase Rat Intestine, percentage inhibition [8]: 4.4%

OC[C@H](O)[C@@H]1[C@H](O)[C@H](O)CN1Cc1ccc(B(O)O)cc1 [para 8, N-(4-Methylphenylboronic acid)-1,4-dideoxy-1,4-imino-L-gulitol]
N-Acetyl-β-D-hexosaminidase Rat Intestine, percentage inhibition [8]: 2.6%

borocaptate sodium [BSH, reference compound]
inhibitions across the panel (Table 7) [1]: 31.6–65.9%
N-Acetyl-β-D-glucosaminidase Bovine Kidney, percentage inhibition [2]: 37.1%
α-D-Mannosidase Jack Bean, percentage inhibition [3]: −18.7%
α-D-Glucosidase Bacillus, percentage inhibition [4]: 48.1%
